One substance from US7915302B2, “Crystal forms of pyrrolylheptanoic acid derivatives” (Dong-A Pharm. Co., Ltd., priority 2007, dated 2011) can be followed below.

This data set can be described thus: Stability Identification-Content Measurement (HPLC content after storage in HDPE bottle). The data set is classed as physicochemical. How it is done:
80 mg of the novel crystalline form of the compound prepared in Example 2 and 80 mg of a standard product with a purity of 99.9% prepared by the process described in Example 2 were accurately weighed, placed in 100 ml volumetric flasks, and dissolved in dimethylformamide. The volumes of the solutions were adjusted to the marked lines of the flasks to prepare test solutions and standard solutions, respectively. Each of the solutions was analyzed by column chromatography under the following conditions: • Column: Zorbax Rx C8 (4.6 mm×250 mm, 5 μm) or its equivalent • Mobile Phase (0.05 M ammonium acetate buffer (pH=5.0)/acetonitrile/tetrahydrofuran) Mobile Phase A: • 0.05 M ammonium acetate buffer (pH=5.0)/acetonitrile/tetrahydrofuran (67/21/12) Mobile Phase B: • 0.05M ammonium acetate buffer (pH=5.0)/acetonitrile/tetrahydrofuran (54/34/12) • Detector: UV absorption spectrophotometer (wavelength: 244 nm) • Flow Rate: 1.0 mL/min. • Column Temperature: 35±2° C. • Storage: in HDPE bottle
The contents of the compound prepared in Example 2 were quantified by the area under each peak. Variations in the content of the compound were evaluated at room temperature, in a freezer, under accelerated storage conditions and under extreme storage conditions over the periods indicated in Table 6, and the results are shown in Table 6.

Turning to “[R—(R*,R*)]-2-(4-fluorophenyl)-β,δ-dihydroxy-5-(1-methylethyl)-3-phenyl-4-[(phenylamino)carbonyl]-1H-pyrrole-1-heptanoic acid hemicalcium salt [Example 2]”, the “content of the compound” value reads like this: (40° C./75% RH (accelerated storage), 1 month) 98.82%; (40° C./75% RH (accelerated storage), 2 months) 98.33%; (40° C./75% RH (accelerated storage), 3 months) 98.03%; (60° C./Dry (extreme storage), 1 month) 98.01%; (at room temp., 1 month) 98.72%; (at room temp., 2 months) 98.58%. In addition, the “content of the compound” value was 98.12% (at room temp., 3 months); 98.56% (at room temp., 6 months); 99.74% (in freezer, 1 month); 99.31% (in freezer, 2 months); 100.19% (in freezer, 3 months); 98.11% (in freezer, 6 months).
